Results: patent US8044186B2, “Heterologous production of capreomycin and generation of new capreomycin derivatives through metabolic engineering” (priority 2007, dated 2011)
≈ marks a conversion by molar mass, not a printed value.

Key:
[1] = system: E. coli DH5α/pBAD33-cmnU/pSJ101 (cmnU+, tlyA+); assay: MIC in E. coli expressing cmnU and tlyA; type: cell-based, Escherichia coli
From the text: (§1) Analysis of cmnU in E. coli. The gene cmnU was PCR amplified from pCMN-P4C8RF using the following primers: CmnU-NdeI (5′-[…]-3′) (SEQ ID NO:37) and CmnU-HindIII (5′-[…]-3′) (SEQ ID NO:38). The amplicon was cloned into pCR-BluntII-TOPO according to manufacturer's instructions (Invitrogen), resulting in pCR-BluntII-TOPO-cmnU. The NdeI/HindIII fragment of pCR-Blunt-TOPO-cmnU containing cmnU was subcloned into the corresponding restriction sites of pET22b (Novagen), resulting in pET22b-cmnU. The XbaI/HindIII fragment of pET22b-cmnU containing the optimized ribosome-binding site and cmnU was subcloned into the corresponding sites of pBAD33 (14) resulting in pBAD33-cmnU. This construct results in the expression of cmnU under the control of the arabinose promoter of pBAD33. pBAD33 and pBAD33-cmnU were transformed into DH5α strains containing either pLJ102 (empty vector) or pSJ101 (tlyA inserted into pLJ102 and expression controlled by IPTG induction) (18). Each of these strains was grown in LB medium containing chloramphenicol (15 μg/ml) and ampicillin (100 μg/ml) for plasmid maintenance, isopropyl-beta-D-thiogalactopyranoside (40 μg/ml) and arabinose (2% w/v) for induced expression of tlyA and cmnU, respectively, and varying concentrations of CMN (12.5-100 μg/ml) or kanamycin (6-96 μg/ml). […]

[2] = system: St. lividans 1326/pSE34-cmnU (cmnU+); assay: MIC in St. lividans 1326 expressing cmnU; type: cell-based, Streptomyces lividans
Description: (§2) Analysis of cmnU in St. lividans 1326. The XbaI/HindIII fragment of pET22b-cmnU was cloned into the corresponding sites of pSE34 (29) to generate pSE34-cmnU. This vector construct results in the constitutive expression of cmnU when pSE34-cmnU is introduced into St. lividans 1326. pSE34-cmnU and pSE34 were introduced into St. lividans 1326 by transformation, and successful transformants were selected by using an overlay of thiostrepton (8 μg/ml). Transformants were streaked for isolation on ISP2 medium containing thiostrepton. To test for CMN or kanamycin resistance, 10^5 spores of St. lividans 1326 containing either pSE34-cmnU or pSE34 were plated onto ISP2 plates supplemented with CMN (25-1600 μg/ml) or kanamycin (3-1600 μg/ml). The plates were incubated at 30° C. for 2 days, and the minimum inhibitory concentration was defined as the lowest antibiotic concentration at which no growth was observed.

[3] = system: St. lividans 1326/pSE34 (cmnU−); assay: MIC in St. lividans 1326 with empty vector; type: cell-based, Streptomyces lividans
Description: as §2

[4] = system: E. coli DH5α/pBAD33-cmnU/pLJ102 (cmnU+, tlyA−); assay: MIC in E. coli expressing cmnU; type: cell-based, Escherichia coli
From the text: as §1

[5] = system: E. coli DH5α/pBAD33/pSJ101 (cmnU−, tlyA+); assay: MIC in E. coli expressing tlyA; type: cell-based, Escherichia coli
From the text: as §1

[6] = system: E. coli DH5α/pBAD33/pLJ102 (cmnU−, tlyA−); assay: MIC in E. coli, cmnU not expressed, tlyA not expressed; type: cell-based, Escherichia coli
From the text: as §1

[7] = Escherichia coli, 16 h, read-out: minimum inhibitory concentration (MIC)
[8] = Streptomyces lividans, 48 h, read-out: minimum inhibitory concentration (MIC)

Row | Compound | MIC [1, 7] | MIC [2, 8] | MIC [3, 8] | MIC [4, 7] | MIC [5, 7] | MIC [6, 7] | minimum inhibitory concentration (MIC) ([1]; E. coli DH5α/pBAD33-cmnU/pSJ101 (cmnU+, tlyA+), lowest concentration with OD650 < 0.1 after 16 hrs at 37° C. in LB medium, three separate experiments) | minimum inhibitory concentration (MIC) ([2]; St. lividans 1326/pSE34-cmnU (cmnU+), lowest concentration with no growth on ISP2 plates after 2 days at 30° C., three separate experiments) | minimum inhibitory concentration (MIC) ([3]; St. lividans 1326/pSE34 (cmnU−), lowest concentration with no growth on ISP2 plates after 2 days at 30° C., three separate experiments) | minimum inhibitory concentration (MIC) ([4]; E. coli DH5α/pBAD33-cmnU/pLJ102 (cmnU+, tlyA−), lowest concentration with OD650 < 0.1 after 16 hrs at 37° C. in LB medium, three separate experiments) | minimum inhibitory concentration (MIC) ([5]; E. coli DH5α/pBAD33/pSJ101 (cmnU−, tlyA+), lowest concentration with OD650 < 0.1 after 16 hrs at 37° C. in LB medium, three separate experiments) | minimum inhibitory concentration (MIC) ([6]; E. coli DH5α/pBAD33/pLJ102 (cmnU−, tlyA−), lowest concentration with OD650 < 0.1 after 16 hrs at 37° C. in LB medium, three separate experiments)
1 | NC[C@H]1O[C@H](O[C@H]2[C@H](O)[C@@H](O[C@H]3O[C@H](CO)[C@@H](O)[C@H](N)[C@H]3O)[C@H](N)C[C@@H]2N)[C@H](O)[C@@H](O)[C@@H]1O [Kanamycin, kanamycin] | 24 µg/mL (≈ 49.5 µM) | > 1600 µg/mL | 6 µg/mL (≈ 12.4 µM) | 96 µg/mL (≈ 198 µM) | 12 µg/mL (≈ 24.8 µM) | 12 µg/mL (≈ 24.8 µM) | – | – | – | – | – | –
2 | capreomycin [CMN] | – | – | – | – | – | – | 50 µg/mL | >1600 µg/mL | 200 µg/mL | 100 µg/mL | 25 µg/mL | 50 µg/mL
